Assay results: article PMC5257293 (Journal of medicinal chemistry, 2016)

Assays:
[1] = biological target: Sa(H30N, F98Y) DHFR (Staphylococcus aureus, UniProt P0A017, F99Y/H31N); assay: DHFR enzyme inhibition; assay type: biochemical; details: Ki ratio mutant vs wild-type
[2] = tested on: Sa43300(H149R); assay: Mutant selection / mutational frequency at 6x MIC; assay type: cell-based, Staphylococcus aureus; details: progenitor Sa(H149R), selection at 6x MIC
[3] = tested on: S. aureus 43300; details: cited from earlier work
[4] = tested on: Sa43300(F98Y); assay: Mutant selection / mutational frequency at 6x MIC; assay type: cell-based, Staphylococcus aureus; details: progenitor Sa(F98Y), selection at 6x MIC
[5] = tested on: Sa43300; assay: Mutant selection / mutational frequency at 6x MIC; assay type: cell-based, Staphylococcus aureus; details: progenitor Sa43300, selection at 6x MIC

SMILES	loss in affinity for Sa (F98Y, H30N) double mutant enzyme relative to wild-type [1]	Mutational Frequency, DHFR mutation F98Y/H149R [2]	mutation frequencies (mutants F98Y and F98I in the DHFR gene) [3]	Mutational Frequency, DHFR mutation F98Y/H30N [4]	Mutational Frequency, DHFR mutation F98Y [5]	Mutational Frequency, DHFR mutation H30N [5]	Mutational Frequency, DHFR mutation H149R [5]
CCc1nc(N)nc(N)c1C#CC(C)c1cc2c(c(-c3ccncc3)c1)OCO2 (centres unmarked) [Compound 2]	180 to 300 fold	–	–	–	–	–	–
CCc1nc(N)nc(N)c1C#CC(C)c1cc(OC)cc(-c2ccncc2)c1 (centres unmarked) [Compound 1]	–	1.23x10^−11	10^−10	8.2 x 10^−12	3.11 x 10^−11	4.67 x 10^−11	1.65 x 10^−10
CCc1nc(N)nc(N)c1C#C[C@H](C)c1cc2c(c(-c3ccncc3)c1)OCO2 [Compound 7]	180 to 300 fold	–	–	–	–	–	–
